Measurements as given in patent publication EP4471049A1 (Zealand Pharma A/S, priority 2023, dated 2024).
Read-outs that look alike come from different tables or passages of the source. *1 amine or outer side, *2 acyl side, *3 side chain or, on linkers, in order; H or OH if unused. Where a SMILES comes first, the peptide text is derived from it. Bridges are numbered along the chain shown (N, C = ends). [ ]: non-standard residue; d: D form. 2Nal = N[C@@H](Cc1ccc2ccccc2c1)C(=O)O; AEF = NCCOc1ccc(C[C@H](N)C(=O)O)cc1; X1 = O=C(Cc1ccc(CN[*:1])cc1)[*:2]; 3Pal = N[C@@H](Cc1cccnc1)C(=O)O; αMeL = CC(C)C[C@](C)(N)C(=O)O; Dab = NCC[C@H](N)C(=O)O

Experiments:
[1] = biological target: IL-23 mediated STAT3 signalling (Homo sapiens, UniProt Q5VWK5); experiment: Functional inhibition of IL-23 mediated STAT3 signalling (phospho-STAT3 Tyr705 MSD, DB cells); assay type: cell-based
Protocol: The ability of compounds to inhibit IL-23 mediated signalling was determined in the human-derived DB cell line (CRL-2289) (hereafter referred to as DB cells), which endogenously expresses the human IL-23R and human IL-12R β1 subunits. Upon binding of IL-23, the IL-23R forms a heterodimer signalling complex together with IL-12R β1, which through the JAK2/STAT3 pathway promotes phosphorylation of STAT3 to form phospho-STAT3. In the assay, the functional antagonism of IL-23 mediated phospho-STAT3 formation in DB cells by the compound is quantified using reagents capable of measuring the phosphorylation state of Tyr705 of STAT3 in the form of a phospho-STAT3 (Tyr705) MSD (Meso Scale Discovery) kit.
[…]. For compounds tested in this assay, the response was normalized relative to control values to calculate the IC50 and maximal inhibitory response from a concentration response curve of the compound in presence of a fixed concentration of human IL-23.
The assay procedure was as follows. DB cells were maintained in growth medium consisting of RPMI-1640 [Invitrogen 61870-010] supplemented with 10% V/V Foetal Bovine Serum (FBS) [(heat inactivated), Invitrogen 10270-106], and 1% V/V Penicillin-Streptomycin (Pen-Strep) Solution [Invitrogen 15140]. On the day of assay, cells were resuspended in Assay buffer consisting of RPMI-1640 [Invitrogen 61870-010] supplemented with 0.1 % w/V BSA [Sigma-Aldrich A9430] to a density of 7.5x10^6 cells/mL. Compounds to be tested for inhibition of hIL-23 mediated signalling were serially diluted in Assay buffer to 3X the final concentration. A solution of hIL-23 corresponding to 3X the EC80 of hIL-23 (1.7 nM) was also prepared in Assay buffer. To initiate the assay, 20 µL of DB cell suspension (corresponding to 150.000 cells/well) was added to the wells of a 96-well V-bottom Polypropylene plate [Corning 3363] followed by addition of 3X 20 µL of the diluted test compounds to separate wells. Following preincubation of the DB cells with inhibitor for 15 min in a cell incubator (37 °C, 5% CO2), 20 µL of the prepared 3X the EC80 of hIL-23 solution was added to each well and incubated for 90 min in a cell incubator (37 °C, 5% CO2). For some wells buffer only or IL-23 only corresponding to the EC80 was added to obtain readouts needed for normalization. To terminate the assay, the plate was spun at 1000 G for 5 min to pellet cells, the supernatant removed using an 8-channel manual pipette, and then added 50 µL/well Complete Lysis Buffer from the MSD STAT3 kit (Cat# K150SVD, Mesoscale) to the cell pellet. To completely lyse cells to release phospho-STAT3 for detection, the plate was shaken for 10 min at room temperature (500 rpm) sealed with aluminium foil and placed at -80 °C for a minimum of 15 min. Detection of the phospho-STAT3 level in the cell lysate from the individual wells was determined using the MSD STAT3 kit (Cat# K150SVD, Mesoscale) and read on a Meso QuickPlex SQ 120 plate reader (Mesoscale).
For data analysis raw data counts from the Meso QuickPlex SQ 120 plate reader were normalized relative to the response by the EC80 of hIL-23 alone (no compound added) and the buffer level. Compound potency (IC50) and maximal inhibitory response (% inhibition) were estimated by computer-aided curve fitting using a 4-parameter logistic (4PL) non-linear model. […]. Typically compounds with a low IC50 are desired. Typically compounds capable of completely inhibiting the IL23-induced response are desired. […]. Table 3-2: hIL-23 (pSTAT3) antagonist IC50 and % inhibition data

[2] = Peptide stability in simulated intestinal fluid (SIF); assay type: in vitro ADME
How it was run: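 Peptides were incubated at 37 °C with gentle shaking in pH 6.8 potassium phosphate SIF containing porcine pancreatin (10 g/L). Supernatants were analysed by LC-HRMS. Percent remaining at each timepoint, including 4 h, was calculated relative to time zero from absolute peak areas.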

[3] = Peptide stability in simulated gastric fluid (SGF); assay type: in vitro ADME; settings: pig, simulated gastric fluid (SGF) with porcine pepsin, 4 h, 37 °C, pH 1.2, porcine pepsin 3.2 g/L
How it was run: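 Peptide incubated at 37 °C with gentle shaking in SGF (NaCl, pH 1.2). Samples centrifuged, diluted and analysed by LC-HRMS; percent remaining at each timepoint from absolute peak areas relative to time zero, with 4 h as the reference point.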

Sequence of IL-23 mediated STAT3 signalling (Q5VWK5 24-629 limits assumed): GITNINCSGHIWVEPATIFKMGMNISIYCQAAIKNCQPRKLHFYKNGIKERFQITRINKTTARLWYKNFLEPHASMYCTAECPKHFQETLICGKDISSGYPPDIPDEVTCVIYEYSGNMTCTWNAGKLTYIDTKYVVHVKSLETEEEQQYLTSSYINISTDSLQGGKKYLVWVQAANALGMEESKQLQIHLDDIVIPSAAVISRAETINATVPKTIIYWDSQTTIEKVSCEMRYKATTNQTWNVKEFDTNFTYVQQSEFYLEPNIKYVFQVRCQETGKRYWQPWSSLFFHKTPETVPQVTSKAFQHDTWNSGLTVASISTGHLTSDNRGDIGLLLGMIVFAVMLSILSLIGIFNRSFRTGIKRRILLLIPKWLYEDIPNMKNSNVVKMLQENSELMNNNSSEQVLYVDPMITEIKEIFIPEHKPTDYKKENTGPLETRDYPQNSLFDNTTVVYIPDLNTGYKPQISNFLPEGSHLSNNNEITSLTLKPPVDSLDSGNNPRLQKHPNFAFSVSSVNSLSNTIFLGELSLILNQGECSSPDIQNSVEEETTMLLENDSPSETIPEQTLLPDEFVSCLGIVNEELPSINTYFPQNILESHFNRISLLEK

IC50 ([1]; Table 3-2, EC80 of hIL-23, read-out: hIL-23 (pSTAT3) antagonist IC50) [nM] | remaining at 1 h, 10 µM ([2]; pig, simulated intestinal fluid (SIF) with porcine pancreatin, 1 h, 37 °C, pH 6.8, porcine pancreatin 10 g/L, 10 µM) [%] | remaining at 4 h, 10 µM ([2]; pig, simulated intestinal fluid (SIF) with porcine pancreatin, 4 h, 37 °C, pH 6.8, porcine pancreatin 10 g/L, 10 µM, read-out: SIF (% remaining 4 h)) [%] | remaining at 4 h, 10 µM [3] [%] | IC50 ([1]; Example 2 (Tables 2-1 to 2-4), read-out: IC50 (pSTAT3)) [nM] | SIF (% remaining 4 h) ([2]; 4 h, 37 °C, pH 6.8, porcine pancreatin 10 g/L, 10 µM) [%] | remaining at 4 h, 10 µM ([2]; pig, simulated intestinal fluid (SIF) with porcine pancreatin, pH 6.8, Example 2 (Tables 2-1 to 2-4), intact peptide remaining after 4 h, read-out: SIF (% after 4 h)) [%] | Structure (SMILES)
3.5 | 60 | 2 | 93 |  |  |  | CC(C)C[C@]1(C)NC(=O)[C@H](Cc2ccc3ccccc3c2)NC(=O)[C@H](Cc2ccc(OCCN)cc2)NC(=O)[C@@H]2CCNC(=O)CC[C@H](NC(=O)[C@H](CO)NC(=O)Cc3ccc(cc3)CNC(=O)CC[C@@H](C(=O)N[C@@H](CCN)C(=O)N[C@@H](Cc3c[nH]cn3)C(=O)N[C@@H](Cc3cccnc3)C(N)=O)NC1=O)C(=O)N[C@@H](Cc1c[nH]c3ccccc13)C(=O)N[C@@H](CCC(N)=O)C(=O)N2 [Compound 12, [4-Aminomethyl-phenylacetyl](1c)*SE(2c)WQ[Dab](2c)[Y(2-aminoethoxy)][2-Nal][2-Me-Leu]E(1c)[Dab]H[3-(3-Pyridyl)-Ala]-[NH2]] ([X1]SEWQ[Dab][AEF][2Nal][αMeL]E[Dab]H[3Pal]-NH2; lactam 3-6, N-10)
 |  |  | 78 | 6.8 | 56 | 56 | CC(C)C[C@]1(C)NC(=O)[C@H](Cc2ccc3ccccc3c2)NC(=O)[C@H](Cc2ccc(OCCN)cc2)NC(=O)[C@@H]2CCNC(=O)CC[C@H](NC(=O)[C@H](CO)NC(=O)Cc3ccc(cc3)CNC(=O)CC[C@@H](C(=O)N[C@@H](CCN)C(=O)N[C@H](Cc3c[nH]cn3)C(N)=O)NC1=O)C(=O)N[C@@H](Cc1c[nH]c3ccccc13)C(=O)N[C@@H](CCC(N)=O)C(=O)N2 [Compound 13, [4-Aminomethyl-phenylacetyl](1c)*SE(2c)WQ[Dab](2c)[Y(2-aminoethoxy)][2-Nal][2-Me-Leu]E(1c)[Dab][{d}H]-[NH2]]
